By DC50 is commonly meant the midpoint of the concentration-degradation curve. By EC50 is commonly meant the concentration at which the effect is half-maximal.

The target of assay [1] is T1, IRAK4 (Homo sapiens, UniProt Q9NWZ3).
T1 sequence (Q9NWZ3 1-460): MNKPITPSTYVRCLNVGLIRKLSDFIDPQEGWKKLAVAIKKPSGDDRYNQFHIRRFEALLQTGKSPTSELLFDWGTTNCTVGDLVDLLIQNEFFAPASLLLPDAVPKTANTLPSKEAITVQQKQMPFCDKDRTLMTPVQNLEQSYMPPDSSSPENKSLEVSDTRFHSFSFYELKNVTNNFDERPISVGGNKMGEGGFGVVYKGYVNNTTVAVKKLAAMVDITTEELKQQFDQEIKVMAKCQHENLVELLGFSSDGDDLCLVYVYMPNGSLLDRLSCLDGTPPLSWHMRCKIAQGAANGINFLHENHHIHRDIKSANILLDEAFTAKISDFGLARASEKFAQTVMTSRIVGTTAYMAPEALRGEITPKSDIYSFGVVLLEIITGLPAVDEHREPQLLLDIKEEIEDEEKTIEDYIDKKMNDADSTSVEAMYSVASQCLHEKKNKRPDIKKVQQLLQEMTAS
Kind of assay: OCI-LY-10 MSD assay for IRAK4 DC50. Conditions: OCI-LY10 cells, 4 hr incubation, concentration required to degrade 50% of protein. Further details: endogenous in cells; host or cells: OCI-LY10. The format is cell-based. In outline:
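IRAK4 level was quantified by MSD electrochemiluminescence (anti-IRAK4 capture antibody, rabbit anti-IRAK4 detection antibody) in RIPA lysates of OCI-Ly10 cells. Cells had been treated with compound for 4 hr (8-point, 3-fold serial dilution). Remaining protein versus concentration was fitted to a sigmoidal curve to give DC50.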

In assay [2] the test system is OCI-LY10 cells. Kind of assay: OCI-LY-10 CTG cell viability assay (EC50). The format is cell-based. The note with it: Homo sapiens, 96 h, CellTiter-Glo cell viability, 4 days incubation, top concentration 10 μM, read-out: OCI-LY10 IRAK4 EC50. Here is the method:
A CTG cell viability assay using OCI-LY-10 cells was run to determine compound-mediated cell viability (EC50).
Compound-mediated viability effect on OCI-LY10 was quantitatively determined using the CellTiter-Glo® Luminescent Cell Viability Assay kit from Promega (Catalog number G7570) following manufacturer's recommended procedures. […] Compounds were then added to the assay plate with final top concentration of 10 μM and 1:3 dilution series with total of 9 doses. The final DMSO concentration was normalized to 0.2%. The assay plates were incubated at 37° C. for 4 days under 5% CO2. Then the assay plate was equilibrated at room temperature for 10 minutes. […] The data was then analyzed by software Prism 7.0 from GraphPad and the dose response curves were fit using a three-parameter logistic equation to calculate EC50.
A general note: ATP-based viability assays read luminescence as a measure of living cells.

With `CN[C@@H](C)C(=O)N[C@H](C(=O)N1CCC[C@H]1c1nc(C(=O)c2cccc(OCCOCCOCCNCc3ccc(-n4cc(NC(=O)c5coc(-c6ccnc(NCC7CC7)c6)n5)c(C(F)F)n4)cc3)c2)cs1)C1CCCCC1` [I-556], the half-maximal degradation concentration (DC50) in assay [1] lay in the range of 500 to 1000 nM. In assay [2], the EC50 was over 1000 nM.
For `Cn1cc(NC(=O)c2coc(-c3ccnc(NCC(F)(F)F)c3)n2)c(CNCCOCCOCCOCCOCCOCCNc2cccc3c2C(=O)N(C2CCC(=O)NC2=O)C3=O)n1` (stereo not shown) [I-522] the same measures were over 1000 nM and over 1000 nM.
Consider `O=C1CCC(n2c(=O)oc3cc(CCCOCCOCCNCc4ccc(-n5cc(NC(=O)c6coc(-c7ccnc(NCC8CC8)c7)n6)c(C(F)F)n5)cc4)ccc32)C(=O)N1` (stereo not shown) [I-550], for which, in assay [1], the DC50 was under 50 nM. In assay [2], the EC50 was under 50 nM.
`O=C1CCC(N2Cc3cc(CNC(=O)NCCOCCOCCNCc4ccc(-n5cc(NC(=O)c6coc(-c7ccnc(NCC8CC8)c7)n6)c(C(F)F)n5)cc4)ccc3C2=O)C(=O)N1` (stereo not shown) [I-529] returned a DC50 in assay [1] of 50 to 100 nM. Moreover, the EC50 in assay [2] was 50 to 100 nM.
As to `Cn1c(=O)n(C2CCC(=O)NC2=O)c2cccc(CCCN3CCO[C@@H](CNCc4ccc(-n5cc(NC(=O)c6coc(-c7ccnc(NCC8CC8)c7)n6)c(C(F)F)n5)cc4)C3)c21` (stereo partly shown) [I-588], the DC50 in assay [1] was under 50 nM. Also, the EC50 in assay [2] was under 50 nM.
In assay [1], `Cn1c(=O)n(C2CCC(=O)NC2=O)c2cccc(CCCNCC3COC4C(CNCc5ccc(-n6cc(NC(=O)c7coc(-c8ccnc(NCC(F)(F)F)c8)n7)c(C(F)F)n6)cc5)COC34)c21` (stereo not shown) [I-536] displayed a DC50 of under 50 nM. Further, the EC50 in assay [2] was under 50 nM.
Take `O=C1CCC(N2C[C@H](c3ccc(C#CCN4CCO[C@@H](CNCc5ccc(-n6cc(NC(=O)c7coc(-c8ccnc(NCC9CC9)c8)n7)c(C(F)F)n6)cc5)C4)cc3)OC2=O)C(=O)N1` (stereo partly shown) [I-585]: the DC50 in assay [1] was under 50 nM. The 50% effective concentration (EC50) in assay [2] was under 50 nM.
In the case of `CN[C@@H](C)C(=O)N[C@H](C(=O)N1Cc2cc(OCCOCCOCCOCCOCCOCCNCc3ccc(-n4cc(NC(=O)c5coc(-c6ccnc(NCC7CC7)c6)n5)c(C(F)F)n4)cc3)ccc2C[C@H]1C(=O)N[C@@H]1CCCc2ccccc21)C(C)(C)C` [I-680, 2-[2-(Cyclopropylmethylamino)-4-pyridyl]-N-[3-(difluoromethyl)-1-[4-[[2-[2-[2-[2-[2-[2-[[(3S)-2-[(2S)-3,3-dimethyl-2-[[(2S)-2-(methylamino)propanoyl]amino]butanoyl]-3-[[(1R)-tetralin-1-yl]carbamoyl]-3,4-dihydro-1H-isoquinolin-7-yl]oxy]ethoxy]ethoxy]ethoxy]ethoxy]ethoxy]ethylamino]methyl]-phenyl]pyrazol-4-yl]oxazole-4-carboxamide], the DC50 in assay [1] was over 1000 nM. Also, in assay [2], the EC50 is over 1000 nM.
In assay [1], `CN(C[C@H]1CN(CCCc2ccc3c(c2)n(C)c(=O)n3C2CCC(=O)NC2=O)CCO1)C(=O)c1ccc(-n2cc(NC(=O)c3coc(-c4ccnc(NCC5CC5)c4)n3)c(C(F)F)n2)cc1` (stereo partly shown) [I-490] registered a 50% degradation concentration (DC50) of under 50 nM. Also, the EC50 in assay [2] is under 50 nM.
`CN(CCCCOCCCCc1ccc2c(c1)n(C)c(=O)n2C1CCC(=O)NC1=O)C(=O)c1ccc(-n2cc(NC(=O)c3coc(-c4ccnc(NCC(F)(F)F)c4)n3)c(C(N)=O)n2)cc1` (stereo not shown) [I-489] had a 50% degradation concentration (DC50) in assay [1] of under 50 nM. The EC50 in assay [2] was 500 to 1000 nM.
For `Cn1c(=O)n(C2CCC(=O)NC2=O)c2cccc(CCCOCCCNCc3ccc(-n4cc(NC(=O)c5coc(-c6ccnc(NCC(F)(F)F)c6)n5)c(C(F)F)n4)cc3)c21` (stereo not shown) [I-535] the same measures were under 50 nM and over 1000 nM.
The molecule `Cn1c(=O)n(C2CCC(=O)NC2=O)c2ccc(CN3CCN(CCO[C@H]4C[C@H](NCc5ccc(-n6cc(NC(=O)c7coc(-c8ccnc(NCC9CC9)c8)n7)c(C(F)F)n6)cc5)C4)CC3)cc21` (stereo partly shown) [I-583] displayed a DC50 in assay [1] of under 50 nM. Also, in assay [2], the EC50 is under 50 nM.
In assay [1], `CN(CCCOCCCc1cccc2c1oc(=O)n2C1CCC(=O)NC1=O)C(=O)c1ccc(-n2cc(NC(=O)c3coc(-c4ccnc(NCC(F)(F)F)c4)n3)c(C(N)=O)n2)cc1` (stereo not shown) [I-495] yielded a DC50 of under 50 nM. Moreover, the EC50 in assay [2] is 500 to 1000 nM.
The corresponding values for `Cn1c(=O)n(C2CCC(=O)NC2=O)c2ccc(CCCOCCNCc3ccc(-n4cc(NC(=O)c5coc(-c6ccnc(NCC(F)(F)F)c6)n5)c(C(F)F)n4)cc3)cc21` (stereo not shown) [I-532] are under 50 nM and 500 to 1000 nM.
The corresponding values for `O=C1CCC(N2C[C@H](c3cccc(C#CCN4CCO[C@@H](CNCc5ccc(-n6cc(NC(=O)c7coc(-c8ccnc(NCC9CC9)c8)n7)c(C(F)F)n6)cc5)C4)c3)OC2=O)C(=O)N1` (stereo partly shown) [I-584] are under 50 nM and 50 to 100 nM.
For `Cn1cc(NC(=O)c2coc(-c3ccnc(NCC(F)(F)F)c3)n2)c(C(=O)NCCOCCOCCOCCCc2ccc3c(c2)n(C)c(=O)n3C2CCC(=O)NC2=O)n1` (stereo not shown) [I-463], the DC50 in assay [1] was over 1000 nM. In addition, the EC50 in assay [2] was over 1000 nM.
The molecule `Cn1c(=O)n(C2CCC(=O)NC2=O)c2ccc(CN3CCN(CCO[C@H]4C[C@H](NC(=O)c5ccc(-n6cc(NC(=O)c7coc(-c8ccnc(NCC9CC9)c8)n7)c(C(F)F)n6)cc5)C4)CC3)cc21` (stereo partly shown) [I-506] displayed a DC50 in assay [1] of under 50 nM. The EC50 in assay [2] was under 50 nM.
`O=C1CCC(N2Cc3cc(CNC(=O)OCCNCc4ccc(-n5cc(NC(=O)c6coc(-c7ccnc(NCC8CC8)c7)n6)c(C(F)F)n5)cc4)ccc3C2=O)C(=O)N1` (stereo not shown) [I-558]: in assay [1], the DC50 is under 50 nM. The half-maximal effective concentration (EC50) in assay [2] is under 50 nM.
In turn, `Cn1c(=O)n(C2CCC(=O)NC2=O)c2ccc(N3CCN(CCOCCNCc4ccc(-n5cc(NC(=O)c6coc(-c7ccnc(NCC8CC8)c7)n6)c(C(F)F)n5)cc4)CC3)cc21` (stereo not shown) [I-685] showed a DC50 in assay [1] of under 50 nM. Also, the EC50 in assay [2] was under 50 nM.
In assay [1], `Cn1c(=O)n(C2CCC(=O)NC2=O)c2ccc(CCCN3CCO[C@@H](CNCc4ccc(-n5cc(NC(=O)c6coc(-c7ccnc(NCC8CC8)c7)n6)c(C(F)F)n5)cc4)C3)cc21` (stereo partly shown) [I-574] came in with a DC50 of under 50 nM. In assay [2], the concentration giving a half-maximal response (EC50) was under 50 nM.
`Cn1c(=O)n([C@@H]2CCC(=O)NC2=O)c2cccc(CCCOCCOCCNCc3ccc(-n4cc(NC(=O)c5coc(-c6ccnc(NCC(F)(F)F)c6)n5)c(C(N)=O)n4)cc3)c21` [I-689] displayed a DC50 in assay [1] of under 50 nM. In addition, the EC50 in assay [2] is 500 to 1000 nM.
The corresponding values for `Cn1c(=O)n([C@H]2CCC(=O)NC2=O)c2ccc(CCCCOCCCCNCc3ccc(-n4cc(NC(=O)c5coc(-c6ccnc(NCC7CC7)c6)n5)c(C(F)F)n4)cc3)cc21` (single isomer, unassigned) [I-699] are 100 to 500 nM and under 50 nM.
The corresponding values for `O=C1CCC(n2c(=O)oc3c(CCCN4CCO[C@@H](CNCc5ccc(-n6cc(NC(=O)c7coc(-c8ccnc(NCC9CC9)c8)n7)c(C(F)F)n6)cc5)C4)cccc32)C(=O)N1` (stereo partly shown) [I-589] are under 50 nM and under 50 nM.
For `Cn1c(=O)n([C@H]2CCC(=O)NC2=O)c2cccc(CCCOCCOCCNCc3ccc(-n4cc(NC(=O)c5coc(-c6ccnc(NCC(F)(F)F)c6)n5)c(C(N)=O)n4)cc3)c21` [I-690, N-[3-carbamoyl-1-[4-[[2-[2-[3-[(1S)-1-(2,6-dioxo-3-piperidyl)-3-methyl-2-oxo-benzimidazol-4-yl]propoxy]ethoxy]ethylamino]methyl]phenyl]pyrazol-4-yl]-2-[2-(2,2,2-trifluoroethylamino)-4-pyridyl]oxazole-4-carboxamide] the same measures were under 50 nM and over 1000 nM.
In turn, `Cn1c(=O)n(C2CCC(=O)NC2=O)c2ccc(CCCOCCCNCc3ccc(-n4cc(NC(=O)c5coc(-c6ccnc(NCC(F)(F)F)c6)n5)c(C(F)F)n4)cc3)cc21` (stereo not shown) [I-534] yielded a DC50 in assay [1] of under 50 nM. The EC50 in assay [2] is over 1000 nM.
The corresponding values for `Cn1c(=O)n([C@@H]2CCC(=O)NC2=O)c2ccc(CCCCOCCCCNCc3ccc(-n4cc(NC(=O)c5coc(-c6ccnc(NCC7CC7)c6)n5)c(C(F)F)n4)cc3)cc21` (single isomer, unassigned) [I-700] are under 50 nM and 50 to 100 nM.
Consider `Cn1c(=O)n(C2CCC(=O)NC2=O)c2ccc(CCCOCCOCCNC(=O)c3ccc(-n4cc(NC(=O)c5coc(-c6ccnc(NCC7CC7)c6)n5)c(C(F)F)n4)cn3)cc21` (stereo not shown) [I-461], for which, in assay [1], the DC50 is under 50 nM. In assay [2], the EC50 is under 50 nM.
The molecule `CC(C)(CCOCCCc1cccc2c1oc(=O)n2C1CCC(=O)NC1=O)NC(=O)c1ccc(-n2cc(NC(=O)c3coc(-c4ccnc(NCC5CC5)c4)n3)c(C(F)F)n2)cc1` (stereo not shown) [I-478] returned a DC50 in assay [1] of 50 to 100 nM. In assay [2], the EC50 was in the range of 100 to 500 nM.
The molecule `CN(CC1CCN(CCC#Cc2ccc3c(c2)n(C)c(=O)n3C2CCC(=O)NC2=O)CC1)C(=O)c1ccc(-n2cc(NC(=O)c3coc(-c4ccnc(NCC5CC5)c4)n3)c(C(F)F)n2)cc1` (stereo not shown) [I-504] yielded a DC50 in assay [1] of under 50 nM. Also, the EC50 in assay [2] is under 50 nM.

Source of the values: patent US10874743B2, “IRAK degraders and uses thereof” (Kymera Therapeutics, Inc., priority 2017, dated 2020).
